Results as given in the NIST ThermoML archive (doi:10.1016/j.tca.2012.02.017).
Numbers after ± are expanded uncertainties.

Key:
[1] = molar heat capacity at constant pressure; xn = mol fraction of the nth substance listed; conditions: 101 kPa, Liquid, Large sample (1 g) DSC
[2] = molar heat capacity at constant pressure; conditions: 101.33 kPa, Liquid, Large sample (1 g) DSC

CC(O)COC(C)COC(C)CO (stereo unspecified) [2-[2-(2-hydroxypropoxy)propoxy]-1-propanol] + O
molar heat capacity at constant pressure ([1]; 303.15 K, x1 = 0.2): 158.9 ± 3.9 J/K/mol | molar heat capacity at constant pressure ([1]; 303.15 K, x1 = 0.4): 234.7 ± 5.7 J/K/mol | molar heat capacity at constant pressure ([1]; 303.15 K, x1 = 0.5): 271.9 ± 6.7 J/K/mol | molar heat capacity at constant pressure ([1]; 303.15 K, x1 = 0.6): 309 ± 7.6 J/K/mol | molar heat capacity at constant pressure ([1]; 303.15 K, x1 = 0.8): 381.4 ± 9.3 J/K/mol | molar heat capacity at constant pressure ([1]; 308.15 K, x1 = 0.2): 160.5 ± 3.9 J/K/mol | molar heat capacity at constant pressure ([1]; 308.15 K, x1 = 0.4): 237.2 ± 5.8 J/K/mol | molar heat capacity at constant pressure ([1]; 308.15 K, x1 = 0.5): 275.1 ± 6.7 J/K/mol | molar heat capacity at constant pressure ([1]; 308.15 K, x1 = 0.6): 312.1 ± 7.6 J/K/mol | molar heat capacity at constant pressure ([1]; 308.15 K, x1 = 0.8): 385.8 ± 9.5 J/K/mol | molar heat capacity at constant pressure ([1]; 313.15 K, x1 = 0.2): 162.2 ± 4 J/K/mol | molar heat capacity at constant pressure ([1]; 313.15 K, x1 = 0.4): 240 ± 5.9 J/K/mol | molar heat capacity at constant pressure ([1]; 313.15 K, x1 = 0.5): 278.1 ± 6.8 J/K/mol | molar heat capacity at constant pressure ([1]; 313.15 K, x1 = 0.6): 315.6 ± 7.7 J/K/mol | molar heat capacity at constant pressure ([1]; 313.15 K, x1 = 0.8): 389.6 ± 9.5 J/K/mol | molar heat capacity at constant pressure ([1]; 318.15 K, x1 = 0.2): 163.4 ± 4 J/K/mol | molar heat capacity at constant pressure ([1]; 318.15 K, x1 = 0.4): 241.6 ± 5.9 J/K/mol | molar heat capacity at constant pressure ([1]; 318.15 K, x1 = 0.5): 280.9 ± 6.9 J/K/mol | molar heat capacity at constant pressure ([1]; 318.15 K, x1 = 0.6): 317.9 ± 7.8 J/K/mol | molar heat capacity at constant pressure ([1]; 318.15 K, x1 = 0.8): 392.4 ± 9.6 J/K/mol | molar heat capacity at constant pressure ([1]; 323.15 K, x1 = 0.2): 164.9 ± 4 J/K/mol | molar heat capacity at constant pressure ([1]; 323.15 K, x1 = 0.4): 244.5 ± 6 J/K/mol | molar heat capacity at constant pressure ([1]; 323.15 K, x1 = 0.5): 283.2 ± 6.9 J/K/mol | molar heat capacity at constant pressure ([1]; 323.15 K, x1 = 0.6): 321.6 ± 7.9 J/K/mol | molar heat capacity at constant pressure ([1]; 323.15 K, x1 = 0.8): 396.3 ± 9.7 J/K/mol | molar heat capacity at constant pressure ([1]; 328.15 K, x1 = 0.2): 166.2 ± 4.1 J/K/mol | molar heat capacity at constant pressure ([1]; 328.15 K, x1 = 0.4): 246.6 ± 6 J/K/mol | molar heat capacity at constant pressure ([1]; 328.15 K, x1 = 0.5): 286.1 ± 7 J/K/mol | molar heat capacity at constant pressure ([1]; 328.15 K, x1 = 0.6): 324.7 ± 8 J/K/mol | molar heat capacity at constant pressure ([1]; 328.15 K, x1 = 0.8): 400.5 ± 9.8 J/K/mol | molar heat capacity at constant pressure ([1]; 333.15 K, x1 = 0.2): 167.8 ± 4.1 J/K/mol | molar heat capacity at constant pressure ([1]; 333.15 K, x1 = 0.4): 249.9 ± 6.1 J/K/mol | molar heat capacity at constant pressure ([1]; 333.15 K, x1 = 0.5): 289.3 ± 7.1 J/K/mol | molar heat capacity at constant pressure ([1]; 333.15 K, x1 = 0.6): 328.3 ± 8 J/K/mol | molar heat capacity at constant pressure ([1]; 333.15 K, x1 = 0.8): 404.1 ± 9.9 J/K/mol | molar heat capacity at constant pressure ([1]; 338.15 K, x1 = 0.2): 169.1 ± 4.1 J/K/mol | molar heat capacity at constant pressure ([1]; 338.15 K, x1 = 0.4): 252.2 ± 6.2 J/K/mol | molar heat capacity at constant pressure ([1]; 338.15 K, x1 = 0.5): 292.5 ± 7.2 J/K/mol | molar heat capacity at constant pressure ([1]; 338.15 K, x1 = 0.6): 331.3 ± 8.1 J/K/mol | molar heat capacity at constant pressure ([1]; 338.15 K, x1 = 0.8): 407.6 ± 10 J/K/mol | molar heat capacity at constant pressure ([1]; 343.15 K, x1 = 0.2): 170.7 ± 4.2 J/K/mol | molar heat capacity at constant pressure ([1]; 343.15 K, x1 = 0.4): 254.8 ± 6.2 J/K/mol | molar heat capacity at constant pressure ([1]; 343.15 K, x1 = 0.5): 295.5 ± 7.2 J/K/mol | molar heat capacity at constant pressure ([1]; 343.15 K, x1 = 0.6): 334.9 ± 8.2 J/K/mol | molar heat capacity at constant pressure ([1]; 343.15 K, x1 = 0.8): 411.8 ± 10 J/K/mol | molar heat capacity at constant pressure ([1]; 348.15 K, x1 = 0.2): 172.2 ± 4.2 J/K/mol | molar heat capacity at constant pressure ([1]; 348.15 K, x1 = 0.4): 257.4 ± 6.3 J/K/mol | molar heat capacity at constant pressure ([1]; 348.15 K, x1 = 0.5): 298.5 ± 7.3 J/K/mol | molar heat capacity at constant pressure ([1]; 348.15 K, x1 = 0.6): 338.2 ± 8.3 J/K/mol | molar heat capacity at constant pressure ([1]; 348.15 K, x1 = 0.8): 416 ± 10 J/K/mol | molar heat capacity at constant pressure ([1]; 353.15 K, x1 = 0.2): 173.9 ± 4.3 J/K/mol | molar heat capacity at constant pressure ([1]; 353.15 K, x1 = 0.4): 260.2 ± 6.4 J/K/mol | molar heat capacity at constant pressure ([1]; 353.15 K, x1 = 0.5): 302.1 ± 7.4 J/K/mol | molar heat capacity at constant pressure ([1]; 353.15 K, x1 = 0.6): 342.1 ± 8.4 J/K/mol | molar heat capacity at constant pressure ([1]; 353.15 K, x1 = 0.8): 420.3 ± 10 J/K/mol

OCCCOCCCO [4-oxa-1,7-heptanediol]
molar heat capacity at constant pressure ([2]; 303.15 K): 329 ± 6 J/K/mol | molar heat capacity at constant pressure ([2]; 313.15 K): 335.9 ± 5.6 J/K/mol | molar heat capacity at constant pressure ([2]; 323.15 K): 342 ± 5.5 J/K/mol | molar heat capacity at constant pressure ([2]; 333.15 K): 348.5 ± 5.4 J/K/mol | molar heat capacity at constant pressure ([2]; 343.15 K): 355.1 ± 5.5 J/K/mol | molar heat capacity at constant pressure ([2]; 353.15 K): 362.6 ± 5.6 J/K/mol
